In PubChem BioAssay (NCI):
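1) Cells in 96-well plates. 2) Compound, 48 h, 5 concentrations. 3) Linear interpolation between surrounding doses. 4) Unreached endpoint = highest concentration. GI50: concentration for 50% inhibition of growth. TGI: concentration producing complete growth inhibition.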

Legend:
Experiment in all cases: NCI tumour cell line growth inhibition, 48 h
[1] = system: BT-549 breast
[2] = system: OVCAR-4 ovarian
[3] = system: SF-539 CNS
[4] = system: OVCAR-8 ovarian
[5] = system: HOP-62 NSCLC
[6] = system: SNB-19 CNS
[7] = system: U251 CNS
[8] = system: SK-MEL-5 melanoma
[9] = system: M14 melanoma
[10] = system: NCI-H23 lung
[11] = system: SW-620 colon
[12] = system: CCRF-CEM leukemia
[13] = system: UACC-62 melanoma
[14] = system: MCF7 breast
[15] = system: IGROV1 ovarian
[16] = system: MDA-MB-231 breast
[17] = system: EKVX NSCLC
[18] = system: PC-3 prostate
[19] = system: SK-MEL-28 melanoma
[20] = system: OVCAR-5 ovarian
[21] = system: TK-10 renal
[22] = system: DU-145 prostate
[23] = system: NCI/ADR-RES ovarian
[24] = system: HS 578T breast
[25] = system: SF-268 CNS
[26] = system: T-47D breast
[27] = system: NCI-H460 lung
[28] = system: HCC-2998 colon
[29] = system: SK-OV-3 ovarian
[30] = system: RPMI-8226 leukemia
[31] = system: ACHN renal
[32] = system: RXF 393 renal
[33] = system: KM12 colon
[34] = system: HOP-92 NSCLC
[35] = system: 786-0 renal
[36] = system: SF-295 CNS
[37] = system: LOX IMVI melanoma
[38] = system: SNB-75 CNS
[39] = system: A498 renal
[40] = system: SK-MEL-2 melanoma
[41] = system: MALME-3M melanoma
[42] = system: HT29 colon
[43] = system: COLO 205 colon
[44] = system: HCT-116 colon
[45] = system: OVCAR-3 ovarian
[46] = system: K-562 leukemia
[47] = system: NCI-H522 lung
[48] = system: SN12C renal
[49] = system: UACC-257 melanoma
[50] = system: UO-31 renal
[51] = system: A549 NSCLC
[52] = system: NCI-H226 lung
[53] = system: MDA-MB-435
[54] = system: HL-60(TB) leukemia
[55] = system: HCT-15 colon
[56] = system: SR leukemia
[57] = system: MOLT-4 leukemia

Molecule `Cn1c2c(c3ccc(-c4ccn[nH]4)cc3c1=O)C(=O)c1ccccc1-2` has a GI50 [1] of 2.29 µM, a TGI [1] of 8.78 µM and a GI50 [2] of 7.65 µM. It also gave a TGI [2] of over 100 µM, a GI50 [3] of 2.28 µM and a TGI [3] of 11.4 µM. It also gave a GI50 [4] of 1.78 µM, a TGI [4] of 34.6 µM and a GI50 [5] of 1.92 µM. It also gave a TGI [5] of 9.89 µM, a GI50 [6] of 2.71 µM and a TGI [6] of 17.3 µM. It also gave a GI50 [7] of 1.66 µM, a TGI [7] of 10.5 µM and a GI50 [8] of 1.76 µM. It also gave a TGI [8] of 5.68 µM, a GI50 [9] of 3.6 µM and a TGI [9] of over 100 µM. It also gave a GI50 [10] of 2.64 µM, a TGI [10] of over 100 µM and a GI50 [11] of 2.15 µM. The TGI [11] was over 100 µM, the GI50 [12] was 0.832 µM and the TGI [12] was over 100 µM. It also gave a GI50 [13] of 3.1 µM, a TGI [13] of over 100 µM and a GI50 [14] of 0.408 µM. The TGI [14] was over 100 µM, the GI50 [15] was 2.18 µM and the TGI [15] was over 100 µM. For the same molecule, the GI50 [16] was 4.46 µM, the TGI [16] was 64.7 µM and the GI50 [17] was 2.95 µM. The TGI [17] was over 100 µM, the GI50 [18] was 4.28 µM and the TGI [18] was over 100 µM. It also gave a GI50 [19] of 42.5 µM, a TGI [19] of over 100 µM and a GI50 [20] of 5.08 µM. For the same molecule, the TGI [20] was over 100 µM, the GI50 [21] was 4.02 µM and the TGI [21] was 68.6 µM. The GI50 [22] was 1.71 µM, the TGI [22] was over 100 µM and the GI50 [23] was 3.78 µM. For the same molecule, the TGI [23] was over 100 µM, the GI50 [24] was 6.84 µM and the TGI [24] was over 100 µM. It also gave a GI50 [25] of 3.21 µM, a TGI [25] of over 100 µM and a GI50 [26] of 2.86 µM. For the same molecule, the TGI [26] was over 100 µM, the GI50 [27] was 0.494 µM and the TGI [27] was 3.37 µM. The GI50 [28] was 11.6 µM, the TGI [28] was over 100 µM and the GI50 [29] was 5.21 µM. The TGI [29] was over 100 µM, the GI50 [30] was 1.77 µM and the TGI [30] was 4.79 µM. It also gave a GI50 [31] of 1.34 µM, a TGI [31] of 5.78 µM and a GI50 [32] of 3.61 µM. It also gave a TGI [32] of over 100 µM, a GI50 [33] of 2.34 µM and a TGI [33] of over 100 µM. It also gave a GI50 [34] of 2.84 µM, a TGI [34] of 9.93 µM and a GI50 [35] of 1.49 µM. For the same molecule, the TGI [35] was 4.46 µM, the GI50 [36] was 3.81 µM and the TGI [36] was over 100 µM. The GI50 [37] was 1.06 µM, the TGI [37] was 4.78 µM and the GI50 [38] was 6.18 µM. For the same molecule, the TGI [38] was over 100 µM, the GI50 [39] was 6.44 µM and the TGI [39] was over 100 µM. The GI50 [40] was over 100 µM, the TGI [40] was over 100 µM and the GI50 [41] was 4.21 µM. For the same molecule, the TGI [41] was over 100 µM, the GI50 [42] was 1.52 µM and the TGI [42] was 4.85 µM. It also gave a GI50 [43] of 5.51 µM, a TGI [43] of over 100 µM and a GI50 [44] of 1.52 µM. It also gave a TGI [44] of 19 µM, a GI50 [45] of 5.97 µM and a TGI [45] of 76.3 µM. The GI50 [46] was 2.17 µM, the TGI [46] was over 100 µM and the GI50 [47] was 2.22 µM. The TGI [47] was 23.8 µM, the GI50 [48] was 2.1 µM and the TGI [48] was 8.86 µM. It also gave a GI50 [49] of 7.79 µM, a TGI [49] of over 100 µM and a GI50 [50] of 1.5 µM. For the same molecule, the TGI [50] was over 100 µM, the GI50 [51] was 1.03 µM and the TGI [51] was 3.04 µM. It also gave a GI50 [52] of 1.83 µM, a TGI [52] of 5.39 µM and a GI50 [53] of 7.51 µM. For the same molecule, the TGI [53] was over 100 µM, the GI50 [54] was 0.813 µM and the TGI [54] was 5.53 µM. The GI50 [55] was 1.51 µM and the TGI [55] was over 100 µM.
`Cc1cc2cc3c(Cl)c(CCCl)c(C)nc3cc2c(Cl)c1CCCl` showed a TGI [1] of 47.7 µM, a TGI [2] of 66.3 µM and a TGI [3] of 30 µM. The TGI [4] was 94.5 µM, the TGI [5] was 27.8 µM and the TGI [6] was 85.9 µM. It also gave a TGI [7] of 60 µM, a TGI [8] of 26.6 µM and a TGI [10] of 63.6 µM. For the same molecule, the TGI [11] was 76.8 µM, the TGI [12] was 48.9 µM and the TGI [13] was 34.4 µM. For the same molecule, the TGI [14] was 56.7 µM, the TGI [15] was over 100 µM and the TGI [17] was 42.3 µM. It also gave a TGI [18] of 39.6 µM, a TGI [19] of 35.1 µM and a TGI [21] of over 100 µM. The TGI [22] was 80.3 µM, the TGI [23] was 61.8 µM and the TGI [24] was 30.6 µM. It also gave a TGI [25] of 30.9 µM, a TGI [26] of 69.8 µM and a TGI [27] of 34.2 µM. The TGI [28] was 39.7 µM, the TGI [30] was 36.5 µM and the TGI [31] was 75.5 µM. It also gave a TGI [32] of 17.5 µM, a TGI [33] of 46.4 µM and a TGI [34] of 35.4 µM. For the same molecule, the TGI [35] was 78.6 µM, the TGI [56] was 32.9 µM and the TGI [36] was 35.2 µM. The TGI [37] was 29.5 µM, the TGI [38] was over 100 µM and the TGI [39] was 48.4 µM. For the same molecule, the TGI [41] was 45.7 µM, the TGI [57] was 44.7 µM and the TGI [42] was over 100 µM. For the same molecule, the TGI [43] was 36.1 µM, the TGI [44] was 31.8 µM and the TGI [45] was 34.4 µM. For the same molecule, the TGI [46] was 43.3 µM, the TGI [47] was 37.7 µM and the TGI [49] was 34.8 µM. For the same molecule, the TGI [50] was 50.9 µM, the TGI [51] was 57.2 µM and the TGI [52] was 20.5 µM. For the same molecule, the TGI [53] was 30.8 µM, the TGI [54] was 27.3 µM and the TGI [55] was over 100 µM.
